Laboratory results taken from publication PMC6501426 (Clinical Epigenetics, 2019).

Experiments:
Assay in all cases: Kinase panel (Cerep)
Format in all cases: biochemical
[1] = biological target: T1, AurA/Aur2 kinase (h) (Homo sapiens, UniProt O14965); conditions: read-out: % inhibition at 10 µM by MC3353, AurA/Aur2 kinase (h), ATP 10 μM
T1 construct: purchased Eurofins Cerep
Method: (§1) The test compound, reference compound or water (control) were mixed with the enzyme (for the exact amount see table below) in the appropriate buffer. Thereafter, the reaction was initiated by adding the required amount of the appropriate substrate and of ATP, and the mixture is incubated at room temperature (variable reaction time, see table below). For control basal measurements, the enzyme was omitted from the reaction mixture. Following incubation, the reaction was stopped by adding 13 mM EDTA. After 5 min, the proper antibody labelled with europium chelate was added. After 60 more min, the fluorescence transfer was measured at λex=337 nm, λem=620 nm and λem=665 nm using a microplate reader (Envision, Perkin Elmer). The enzyme activity was determined by dividing the signal measured at 665 nm by that measured at 620 nm (ratio). The results are expressed as a percent inhibition of the control enzyme activity.

[2] = biological target: T2, CHK1 (h) (Homo sapiens, UniProt O14757); conditions: read-out: % inhibition at 10 µM by MC3353, CHK1 (h), ATP 30 μM
T2 construct: purchased Eurofins Cerep
Method: as §1

[3] = biological target: T3, CHK2 (h) (Homo sapiens, UniProt O96017); conditions: read-out: % inhibition at 10 µM by MC3353, CHK2 (h), ATP 30 μM
T3 construct: purchased Eurofins Cerep
Method: as §1

[4] = biological target: T4, CaMK2alpha (h) (Homo sapiens, UniProt Q9UQM7); conditions: read-out: % inhibition at 10 µM by MC3353, CaMK2alpha (h), ATP 10 μM
T4 construct: purchased Eurofins Cerep
Method: as §1

[5] = biological target: T5, EGFR kinase (h) (Homo sapiens, UniProt P00533); conditions: read-out: % inhibition at 10 µM by MC3353, EGFR kinase (h), ATP 10 μM
T5 construct: purchased Eurofins Cerep
Method: as §1

[6] = biological target: T6, ERK2 (h) (P42mapk) (Homo sapiens, UniProt P28482); conditions: read-out: % inhibition at 10 µM by MC3353, ERK2 (h) (P42mapk), ATP 10 μM
T6 construct: purchased Eurofins Cerep
Method: as §1

[7] = biological target: T7, GSK3beta (h) (Homo sapiens, UniProt P49841); conditions: read-out: % inhibition at 10 µM by MC3353, GSK3beta (h), ATP 10 μM
T7 construct: purchased Eurofins Cerep
Method: as §1

[8] = biological target: T8, JNK1 (h) (Homo sapiens, UniProt P45983); conditions: read-out: % inhibition at 10 µM by MC3353, JNK1 (h), ATP 10 μM
T8 construct: purchased Eurofins Cerep
Method: as §1

[9] = biological target: T9, KDR kinase (h) (VEGFR2) (Homo sapiens, UniProt P35968); conditions: read-out: % inhibition at 10 µM by MC3353, KDR kinase (h) (VEGFR2), ATP 25 μM
T9 construct: purchased Eurofins Cerep
Method: as §1

[10] = biological target: T10, Lck kinase (h) (Homo sapiens, UniProt P06239); conditions: read-out: % inhibition at 10 µM by MC3353, Lck kinase (h), ATP 10 μM
T10 construct: purchased Eurofins Cerep
Method: as §1

[11] = biological target: T11, MARK1 (h) (Homo sapiens, UniProt Q9P0L2); conditions: read-out: % inhibition at 10 µM by MC3353, MARK1 (h), ATP 1 μM
T11 construct: purchased Eurofins Cerep
Method: as §1

[12] = biological target: T12, PAK2 (h) (Homo sapiens, UniProt Q13177); conditions: read-out: % inhibition at 10 µM by MC3353, PAK2 (h), ATP 50 μM
T12 construct: purchased Eurofins Cerep
Method: as §1

[13] = biological target: T13, PAK4 (h) (Homo sapiens, UniProt O96013); conditions: read-out: % inhibition at 10 µM by MC3353, PAK4 (h), ATP 1 μM
T13 construct: purchased Eurofins Cerep
Method: as §1

[14] = biological target: T14, PDK1 (h) (Homo sapiens, UniProt O15530); conditions: read-out: % inhibition at 10 µM by MC3353, PDK1 (h), ATP 10 μM
T14 construct: purchased Eurofins Cerep
Method: as §1

[15] = biological target: T15, PKCbeta 2 (h) (Homo sapiens, UniProt P05771); conditions: read-out: % inhibition at 10 µM by MC3353, PKCbeta 2 (h), ATP 30 μM
T15 construct: purchased Eurofins Cerep
Method: as §1

[16] = biological target: T16, RAF-1 kinase (h) (Homo sapiens, UniProt P04049); conditions: read-out: % inhibition at 10 µM by MC3353, RAF-1 kinase (h), ATP 10 μM
T16 construct: purchased Eurofins Cerep
Method: as §1

[17] = biological target: T17, SIK (h) (Homo sapiens, UniProt P57059); conditions: read-out: % inhibition at 10 µM by MC3353, SIK (h), ATP 30 μM
T17 construct: purchased Eurofins Cerep
Method: as §1

[18] = biological target: T18, Src kinase (h) (Homo sapiens, UniProt P12931); conditions: read-out: % inhibition at 10 µM by MC3353, Src kinase (h), ATP 5 μM
T18 construct: purchased Eurofins Cerep
Method: as §1

[19] = biological target: T19, TRKA (h) (Homo sapiens, UniProt P04629); conditions: read-out: % inhibition at 10 µM by MC3353, TRKA (h), ATP 100 μM
T19 construct: purchased Eurofins Cerep
Method: as §1

[20] = biological target: T20, c-Met kinase (h) (Homo sapiens, UniProt P08581); conditions: read-out: % inhibition at 10 µM by MC3353, c-Met kinase (h), ATP 10 μM
T20 construct: purchased Eurofins Cerep
Method: as §1

[21] = biological target: T21, p38alpha kinase (h) (Homo sapiens, UniProt Q16539); conditions: read-out: % inhibition at 10 µM by MC3353, p38alpha kinase (h), ATP 100 μM
T21 construct: purchased Eurofins Cerep
Method: as §1

T6 sequence (P28482 whole entry): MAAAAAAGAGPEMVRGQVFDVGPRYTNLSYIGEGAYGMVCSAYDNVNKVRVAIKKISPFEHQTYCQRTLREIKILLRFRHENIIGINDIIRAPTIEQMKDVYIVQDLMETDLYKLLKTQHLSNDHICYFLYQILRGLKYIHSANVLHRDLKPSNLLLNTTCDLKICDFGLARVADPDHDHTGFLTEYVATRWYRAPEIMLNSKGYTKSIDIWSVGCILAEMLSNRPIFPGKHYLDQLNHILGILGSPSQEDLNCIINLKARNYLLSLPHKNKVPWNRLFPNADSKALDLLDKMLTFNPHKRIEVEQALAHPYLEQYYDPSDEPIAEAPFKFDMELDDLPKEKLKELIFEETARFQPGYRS
T16 sequence (P04049 whole entry): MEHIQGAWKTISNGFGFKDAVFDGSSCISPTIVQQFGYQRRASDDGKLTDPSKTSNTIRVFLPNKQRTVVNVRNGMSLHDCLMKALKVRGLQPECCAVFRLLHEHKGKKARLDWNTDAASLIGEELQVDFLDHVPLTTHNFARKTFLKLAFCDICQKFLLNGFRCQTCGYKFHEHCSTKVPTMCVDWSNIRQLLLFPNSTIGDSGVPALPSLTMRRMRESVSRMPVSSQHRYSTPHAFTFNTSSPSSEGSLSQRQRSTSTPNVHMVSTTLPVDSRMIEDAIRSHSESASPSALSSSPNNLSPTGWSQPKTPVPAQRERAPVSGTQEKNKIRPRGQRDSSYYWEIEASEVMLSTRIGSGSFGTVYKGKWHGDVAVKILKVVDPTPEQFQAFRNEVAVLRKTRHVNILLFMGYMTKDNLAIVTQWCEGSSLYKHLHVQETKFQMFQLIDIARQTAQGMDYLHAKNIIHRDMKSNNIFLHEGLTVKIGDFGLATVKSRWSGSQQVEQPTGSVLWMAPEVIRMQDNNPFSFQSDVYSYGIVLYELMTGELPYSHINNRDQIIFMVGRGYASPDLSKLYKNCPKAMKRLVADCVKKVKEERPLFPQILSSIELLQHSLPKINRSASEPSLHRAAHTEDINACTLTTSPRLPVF
T20 sequence (P08581 25-1390): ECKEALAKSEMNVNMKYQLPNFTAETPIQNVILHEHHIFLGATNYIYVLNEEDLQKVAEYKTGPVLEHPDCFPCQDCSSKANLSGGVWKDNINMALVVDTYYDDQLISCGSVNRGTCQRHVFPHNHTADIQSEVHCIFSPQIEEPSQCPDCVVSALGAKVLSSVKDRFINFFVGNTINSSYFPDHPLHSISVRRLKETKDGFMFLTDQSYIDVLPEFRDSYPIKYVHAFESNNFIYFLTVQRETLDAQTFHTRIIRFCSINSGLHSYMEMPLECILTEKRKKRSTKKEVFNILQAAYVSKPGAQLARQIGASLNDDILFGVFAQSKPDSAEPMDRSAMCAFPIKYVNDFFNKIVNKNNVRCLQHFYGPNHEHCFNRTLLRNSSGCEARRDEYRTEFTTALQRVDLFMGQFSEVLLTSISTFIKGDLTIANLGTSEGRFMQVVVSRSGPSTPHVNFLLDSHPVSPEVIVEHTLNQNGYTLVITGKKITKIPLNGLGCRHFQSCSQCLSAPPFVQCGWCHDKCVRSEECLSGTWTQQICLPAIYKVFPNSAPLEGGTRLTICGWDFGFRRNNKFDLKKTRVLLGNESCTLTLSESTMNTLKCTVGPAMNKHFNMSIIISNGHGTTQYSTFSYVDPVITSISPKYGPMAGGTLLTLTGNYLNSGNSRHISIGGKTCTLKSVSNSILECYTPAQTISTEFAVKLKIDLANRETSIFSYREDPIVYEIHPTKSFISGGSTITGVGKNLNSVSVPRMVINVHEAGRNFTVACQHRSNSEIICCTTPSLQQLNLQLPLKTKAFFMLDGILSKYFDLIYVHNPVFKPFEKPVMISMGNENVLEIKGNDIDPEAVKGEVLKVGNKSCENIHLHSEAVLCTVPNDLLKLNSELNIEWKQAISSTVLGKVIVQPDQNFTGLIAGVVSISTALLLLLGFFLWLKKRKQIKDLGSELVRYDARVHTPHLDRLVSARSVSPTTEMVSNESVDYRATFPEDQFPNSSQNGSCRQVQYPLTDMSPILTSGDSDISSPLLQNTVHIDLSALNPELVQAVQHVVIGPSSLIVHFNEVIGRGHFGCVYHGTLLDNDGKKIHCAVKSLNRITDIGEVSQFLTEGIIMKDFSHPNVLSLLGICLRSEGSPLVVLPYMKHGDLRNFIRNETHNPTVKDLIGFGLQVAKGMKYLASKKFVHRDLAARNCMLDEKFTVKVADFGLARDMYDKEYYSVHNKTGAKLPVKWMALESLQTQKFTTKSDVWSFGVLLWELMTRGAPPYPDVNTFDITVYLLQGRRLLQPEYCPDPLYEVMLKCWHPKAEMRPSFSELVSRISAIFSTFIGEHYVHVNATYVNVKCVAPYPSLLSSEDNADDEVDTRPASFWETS
T2 sequence (O14757 whole entry): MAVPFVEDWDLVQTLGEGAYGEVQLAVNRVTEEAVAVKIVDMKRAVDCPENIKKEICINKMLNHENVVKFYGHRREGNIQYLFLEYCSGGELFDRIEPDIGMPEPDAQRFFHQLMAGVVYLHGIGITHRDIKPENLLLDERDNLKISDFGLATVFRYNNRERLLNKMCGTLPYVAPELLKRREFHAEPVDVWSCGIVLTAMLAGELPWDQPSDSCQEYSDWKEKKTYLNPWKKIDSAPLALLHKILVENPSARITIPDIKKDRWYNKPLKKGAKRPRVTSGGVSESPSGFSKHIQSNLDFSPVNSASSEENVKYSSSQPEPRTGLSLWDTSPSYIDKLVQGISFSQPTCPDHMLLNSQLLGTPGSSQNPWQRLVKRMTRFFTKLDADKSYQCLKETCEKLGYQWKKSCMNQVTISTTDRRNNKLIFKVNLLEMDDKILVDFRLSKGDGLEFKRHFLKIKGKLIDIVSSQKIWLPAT
T5 sequence (P00533 25-1210): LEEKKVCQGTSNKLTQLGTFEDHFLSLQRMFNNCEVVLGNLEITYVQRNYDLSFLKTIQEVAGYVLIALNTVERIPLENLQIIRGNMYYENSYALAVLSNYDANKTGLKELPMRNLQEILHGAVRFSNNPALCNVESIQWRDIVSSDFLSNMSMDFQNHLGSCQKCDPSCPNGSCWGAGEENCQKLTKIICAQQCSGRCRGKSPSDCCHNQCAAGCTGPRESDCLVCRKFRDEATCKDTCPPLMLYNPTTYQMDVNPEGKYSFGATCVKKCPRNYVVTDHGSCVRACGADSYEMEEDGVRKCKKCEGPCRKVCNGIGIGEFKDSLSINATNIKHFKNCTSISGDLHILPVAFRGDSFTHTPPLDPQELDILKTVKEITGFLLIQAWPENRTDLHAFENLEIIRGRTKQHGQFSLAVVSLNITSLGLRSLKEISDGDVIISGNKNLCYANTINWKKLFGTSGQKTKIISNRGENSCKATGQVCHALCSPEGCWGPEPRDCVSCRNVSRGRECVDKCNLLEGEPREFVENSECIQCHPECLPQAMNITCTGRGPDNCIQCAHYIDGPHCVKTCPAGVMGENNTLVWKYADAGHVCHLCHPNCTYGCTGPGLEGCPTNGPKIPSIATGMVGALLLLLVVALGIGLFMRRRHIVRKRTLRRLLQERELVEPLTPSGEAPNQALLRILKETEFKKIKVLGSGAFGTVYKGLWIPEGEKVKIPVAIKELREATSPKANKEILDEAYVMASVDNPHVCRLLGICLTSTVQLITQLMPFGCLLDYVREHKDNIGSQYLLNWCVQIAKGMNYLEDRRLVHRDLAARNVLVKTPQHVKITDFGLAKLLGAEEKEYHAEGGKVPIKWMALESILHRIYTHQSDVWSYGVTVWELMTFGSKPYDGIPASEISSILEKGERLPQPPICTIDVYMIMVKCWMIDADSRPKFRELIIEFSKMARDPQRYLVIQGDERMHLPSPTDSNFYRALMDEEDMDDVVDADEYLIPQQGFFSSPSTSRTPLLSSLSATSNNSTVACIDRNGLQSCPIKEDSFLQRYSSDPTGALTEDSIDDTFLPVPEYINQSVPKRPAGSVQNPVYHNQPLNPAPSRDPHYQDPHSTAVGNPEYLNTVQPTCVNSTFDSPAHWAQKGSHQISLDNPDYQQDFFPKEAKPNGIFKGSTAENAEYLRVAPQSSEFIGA
T15 sequence (P05771 1-673 isoform P05771-2): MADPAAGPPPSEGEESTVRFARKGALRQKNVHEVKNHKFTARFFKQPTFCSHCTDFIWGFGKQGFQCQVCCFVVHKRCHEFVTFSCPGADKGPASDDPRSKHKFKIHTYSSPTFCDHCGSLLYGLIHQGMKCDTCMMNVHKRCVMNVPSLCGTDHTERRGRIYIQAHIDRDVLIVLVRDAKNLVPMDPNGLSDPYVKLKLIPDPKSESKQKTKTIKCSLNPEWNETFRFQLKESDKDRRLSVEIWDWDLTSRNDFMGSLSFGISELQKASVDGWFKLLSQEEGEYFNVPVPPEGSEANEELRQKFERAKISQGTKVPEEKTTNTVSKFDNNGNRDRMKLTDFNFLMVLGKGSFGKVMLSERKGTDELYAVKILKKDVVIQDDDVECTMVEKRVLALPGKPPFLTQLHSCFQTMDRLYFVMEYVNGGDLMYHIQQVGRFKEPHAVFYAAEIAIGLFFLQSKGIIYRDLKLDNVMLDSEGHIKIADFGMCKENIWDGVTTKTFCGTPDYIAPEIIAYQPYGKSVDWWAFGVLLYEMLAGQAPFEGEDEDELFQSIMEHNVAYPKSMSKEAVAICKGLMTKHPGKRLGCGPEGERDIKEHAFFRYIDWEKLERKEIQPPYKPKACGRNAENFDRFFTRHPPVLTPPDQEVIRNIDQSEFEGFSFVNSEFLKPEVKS
T21 sequence (Q16539 whole entry): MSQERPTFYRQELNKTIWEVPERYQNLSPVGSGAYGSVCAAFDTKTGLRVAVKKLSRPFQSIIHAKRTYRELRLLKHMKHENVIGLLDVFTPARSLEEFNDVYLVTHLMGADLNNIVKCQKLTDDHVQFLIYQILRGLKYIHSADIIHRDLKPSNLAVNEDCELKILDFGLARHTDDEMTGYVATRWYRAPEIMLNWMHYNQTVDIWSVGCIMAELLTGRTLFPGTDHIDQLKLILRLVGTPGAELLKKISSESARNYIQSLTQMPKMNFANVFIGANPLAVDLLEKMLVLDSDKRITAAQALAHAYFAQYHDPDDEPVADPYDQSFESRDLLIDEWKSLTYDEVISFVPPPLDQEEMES

O=C(Nc1ccc(NC(=O)c2ccc(Nc3ccnc4ccccc34)cc2)cc1)OCc1ccccc1 [MC3353, Benzyl (4-(4-(quinolin-4-ylamino)benzamido)phenyl)carbamate] showed an inhibition at 10 µM [1] of 4%, an inhibition at 10 µM [2] of 7% and an inhibition at 10 µM [3] of -30%. It also gave an inhibition at 10 µM [4] of -22%, an inhibition at 10 µM [5] of 5% and an inhibition at 10 µM [6] of -21%. The inhibition at 10 µM [7] was -29%, the inhibition at 10 µM [8] was -32% and the inhibition at 10 µM [9] was -111%. It also gave an inhibition at 10 µM [10] of 4%, an inhibition at 10 µM [11] of -116% and an inhibition at 10 µM [12] of -135%. It also gave an inhibition at 10 µM [13] of -4%, an inhibition at 10 µM [14] of -149% and an inhibition at 10 µM [15] of 11%. The inhibition at 10 µM [16] was 60%, the inhibition at 10 µM [17] was 33% and the inhibition at 10 µM [18] was 57%. It also gave an inhibition at 10 µM [19] of 67%, an inhibition at 10 µM [20] of -116% and an inhibition at 10 µM [21] of -58%.
